Source: patent publication US8809367B2, “1-1-Oxo-1,2,3,4-tetrahydroisoquinolin-7-yl)urea derivatives as N-formyl peptide receptor like-1 (FPRL-1) receptor modulators” (Allergan, Inc., priority 2011, dated 2014)

Target: T1, FPRL-1 (Homo sapiens, UniProt P25090)
T1 construct: expressed in transfected cells
T1 sequence (P25090 1-351): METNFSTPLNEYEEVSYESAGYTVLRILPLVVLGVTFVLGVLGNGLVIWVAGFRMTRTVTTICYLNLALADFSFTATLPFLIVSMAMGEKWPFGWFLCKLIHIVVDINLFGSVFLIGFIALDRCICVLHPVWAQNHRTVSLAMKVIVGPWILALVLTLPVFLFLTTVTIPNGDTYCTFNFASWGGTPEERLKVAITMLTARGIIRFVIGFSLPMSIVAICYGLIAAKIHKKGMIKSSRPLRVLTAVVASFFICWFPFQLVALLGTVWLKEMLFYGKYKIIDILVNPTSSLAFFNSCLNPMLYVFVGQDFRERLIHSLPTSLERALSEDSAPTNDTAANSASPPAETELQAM
Assay: compound-induced calcium activity on FLIPR Tetra in CHO-Ga16 cells stably expressing FPRL1
Assay type: cell-based
Settings: for FPRL-1 Ga16-CHO (eff): efficacy value in brackets under EC50; for EC50: tested at 0.61 to 10,000 nM
Protocol: CHO-Ga16 cells stably expressing FPRL1 were cultured in (F12, 10% FBS, 1% PSA, 400 μg/ml geneticin and 50 μg/ml hygromycin) and HEK-Gqi5 cells stable expressing FPR1 were cultured in (DMEM high glucose, 10% FBS, 1% PSA, 400 μg/ml geneticin and 50 μg/ml hygromycin). In general, the day before the experiment, 18,000 cells/well were plated in a 384-well clear bottom poly-d-lysine coated plate. The following day the screening compound-induced calcium activity was assayed on the FLIPR^Tetra. The drug plates were prepared in 384-well microplates using the EP3 and the MultiPROBE robotic liquid handling systems. Compounds were tested at concentrations ranging from 0.61 to 10,000 nM. Results are expressed as EC50 (nM) and efficacy values.

Row | SMILES | FPRL-1 Ga16-CHO (eff) | EC50
1 | CSc1ccc(NC(=O)Nc2ccc3c(c2)C(=O)N(CCc2c[nH]cn2)C(c2ccc(Cl)cn2)C3)cc1 (stereo not drawn) [Compound 28, 1-{3-(5-chloropyridin-2-yl)-2-[2-(1H-imidazol-4-yl)ethyl]-1-oxo-1,2,3,4-tetrahydroisoquinolin-7-yl}-3-[4-(methylthio)phenyl]urea] | (0.91) | 13.5 nM
2 | C[S+]([O-])c1ccc(NC(=O)Nc2ccc3c(c2)C(=O)N(CCc2c[nH]cn2)C(c2ccc(F)cn2)C3)cc1 (stereo not drawn) [Compound 31, 1-{3-(5-fluoropyridin-2-yl)-2-[2-(1H-imidazol-4-yl)ethyl]-1-oxo-1,2,3,4-tetrahydroisoquinolin-7-yl}-3-[4-(methylsulfinyl)phenyl]urea] | (0.93) | 11.8 nM
3 | CS(=O)(=O)c1ccc(NC(=O)Nc2ccc3c(c2)C(=O)N(CCCN)[C@@H](c2ccc(C#N)cc2)C3)cc1 [Compound 15, (R)-1-[2-(3-aminopropyl)-3-(4-cyanophenyl)-1-oxo-1,2,3,4-tetrahydroisoquinolin-7-yl]-3-[4-(methylsulfonyl)phenyl]urea] | (0.90) | 29 nM
4 | N#Cc1ccc(C2Cc3ccc(NC(=O)Nc4ccc(C(F)(F)F)cc4)cc3C(=O)N2CCc2c[nH]cn2)cc1 (stereo not drawn) [Compound 19, 1-{3-(4-cyanophenyl)-2-[2-(1H-imidazol-4-yl)ethyl]-1-oxo-1,2,3,4-tetrahydroisoquinolin-7-yl}-3-[4-(trifluoromethyl)phenyl]urea] | (0.78) | 32 nM
5 | CC1Cc2ccc(NC(=O)Nc3ccc(S(C)(=O)=O)cc3)cc2C(=O)N1CCCN (stereo not drawn) [Compound 17, 1-[2-(3-aminopropyl)-3-methyl-1-oxo-1,2,3,4-tetrahydroisoquinolin-7-yl]-3-[4-(methylsulfonyl)phenyl]urea] | (88) | 150 nM
6 | CNCCN1C(=O)c2cc(NC(=O)Nc3ccc(C(C)=O)cc3)ccc2CC1c1ccc(C#N)cc1 (stereo not drawn) [Compound 3, 1-(4-acetylphenyl)-3-{3-(4-cyanophenyl)-2-[2-(methylamino)ethyl]-1-oxo-1,2,3,4-tetrahydroisoquinolin-7-yl}urea] | (1.00) | 32 nM
7 | CS(=O)(=O)c1ccc(NC(=O)Nc2ccc3c(c2)C(=O)N(CCc2c[nH]cn2)C(c2ccc(C#N)cc2)C3)cc1 (stereo not drawn) [Compound 30, 1-{3-(4-cyanophenyl)-2-[2-(1H-imidazol-4-yl)ethyl]-1-oxo-1,2,3,4-tetrahydroisoquinolin-7-yl}-3-[4-(methylsulfonyl)phenyl]urea] | (1.00) | 20 nM
8 | CSc1ccc(NC(=O)Nc2ccc3c(c2)C(=O)N(CCc2c[nH]cn2)C(c2ccco2)C3)cc1 (stereo not drawn) [Compound 23, 1-{3-(2-furyl)-2-[2-(1H-imidazol-4-yl)ethyl]-1-oxo-1,2,3,4-tetrahydroisoquinolin-7-yl}-3-[4-(methylthio)phenyl]urea] | (0.83) | 19 nM
9 | CC(=O)c1ccc(NC(=O)Nc2ccc3c(c2)C(=O)N(CCc2c[nH]cn2)C(c2ccc(Cl)nc2)C3)cc1 (stereo not drawn) [Compound 25, 1-(4-acetylphenyl)-3-{3-(6-chloropyridin-3-yl)-2-[2-(1H-imidazol-4-yl)ethyl]-1-oxo-1,2,3,4-tetrahydroisoquinolin-7-yl}urea] | (0.81) | 24 nM
10 | CS(=O)(=O)c1ccc(NC(=O)Nc2ccc3c(c2)C(=O)N(CCc2c[nH]cn2)C(c2ccc(Cl)cn2)C3)cc1 (stereo not drawn) [Compound 34, 1-{3-(5-chloropyridin-2-yl)-2-[2-(1H-imidazol-4-yl)ethyl]-1-oxo-1,2,3,4-tetrahydroisoquinolin-7-yl}-3-[4-(methylsulfonyl)phenyl]urea] | (0.99) | 9.5 nM
11 | CC(=O)c1ccc(NC(=O)Nc2ccc3c(c2)C(=O)N(CCCN)C(c2ccc(C#N)cc2)C3)cc1 (stereo not drawn) [Compound 1, 1-(4-acetylphenyl)-3-[2-(3-aminopropyl)-3-(4-cyanophenyl)-1-oxo-1,2,3,4-tetrahydroisoquinolin-7-yl]urea] | (1.00) | 40 nM
12 | CSc1ccc(NC(=O)Nc2ccc3c(c2)C(=O)N(CCCN)C(c2ccc(C#N)cc2)C3)cc1 (stereo not drawn) [Compound 5, 1-[2-(3-aminopropyl)-3-(4-cyanophenyl)-1-oxo-1,2,3,4-tetrahydroisoquinolin-7-yl]-3-[4-(methylthio)phenyl]urea] | (0.70) | 2.5 nM
13 | CC(=O)c1ccc(NC(=O)Nc2ccc3c(c2)C(=O)N(CCc2c[nH]cn2)C(c2ccc(C#N)cc2)C3)cc1 (stereo not drawn) [Compound 18, 1-(4-acetylphenyl)-3-{3-(4-cyanophenyl)-2-[2-(1H-imidazol-4-yl)ethyl]-1-oxo-1,2,3,4-tetrahydroisoquinolin-7-yl}urea] | (0.80) | 11 nM
14 | CS(=O)(=O)c1ccc(NC(=O)Nc2ccc3c(c2)C(=O)N(CCCN)[C@H](c2ccc(C#N)cc2)C3)cc1 [Compound 14, (S)-1-[2-(3-aminopropyl)-3-(4-cyanophenyl)-1-oxo-1,2,3,4-tetrahydroisoquinolin-7-yl]-3-[4-(methylsulfonyl)phenyl]urea] | (1.3) | 
15 | CS(=O)(=O)c1ccc(NC(=O)Nc2ccc3c(c2)C(=O)N(CCCN)C(c2ccc(C#N)cc2)C3)cc1 (stereo not drawn) [Compound 8, 1-[2-(3-aminopropyl)-3-(4-cyanophenyl)-1-oxo-1,2,3,4-tetrahydroisoquinolin-7-yl]-3-[4-(methylsulfonyl)phenyl]urea] | (0.86) | 10 nM
16 | CSc1ccc(NC(=O)Nc2ccc3c(c2)C(=O)N(CCc2c[nH]cn2)C(c2ccc(Cl)nc2)C3)cc1 (stereo not drawn) [Compound 26, 1-{3-(6-chloropyridin-3-yl)-2-[2-(1H-imidazol-4-yl)ethyl]-1-oxo-1,2,3,4-tetrahydroisoquinolin-7-yl}-3-[4-(methylthio)phenyl]urea] | (0.89) | 6.3 nM
17 | N#Cc1ccc(C2Cc3ccc(NC(=O)Nc4ccc(Br)cc4)cc3C(=O)N2CCCN)cc1 (stereo not drawn) [Compound 6, 1-[2-(3-aminopropyl)-3-(4-cyanophenyl)-1-oxo-1,2,3,4-tetrahydroisoquinolin-7-yl]-3-(4-bromophenyl)urea] | (1.00) | 31 nM

Now from value to molecule:

Row | FPRL-1 Ga16-CHO (eff) | EC50 | SMILES
18 | (1.0) | 10.5 nM | CS(=O)(=O)c1ccc(NC(=O)Nc2ccc3c(c2)C(=O)N(CCc2c[nH]cn2)C(c2ccc(F)cn2)C3)cc1 (stereo not drawn) [Compound 32, 1-{3-(5-fluoropyridin-2-yl)-2-[2-(1H-imidazol-4-yl)ethyl]-1-oxo-1,2,3,4-tetrahydroisoquinolin-7-yl}-3-[4-(methylsulfonyl)phenyl]urea]
19 | (1.04) | 28 nM | CC(=O)c1ccc(NC(=O)Nc2ccc3c(c2)C(=O)N(CCc2c[nH]cn2)C(c2ccc(Cl)c(Cl)c2)C3)cc1 (stereo not drawn) [Compound 20, 1-(4-acetylphenyl)-3-{3-(3,4-dichlorophenyl)-2-[2-(1H-imidazol-4-yl)ethyl]-1-oxo-1,2,3,4-tetrahydroisoquinolin-7-yl}urea]
20 | (0.81) | 17 nM | CSc1ccc(NC(=O)Nc2ccc3c(c2)C(=O)N(CCc2c[nH]cn2)C(c2ccc(Cl)o2)C3)cc1 (stereo not drawn) [Compound 24, 1-{3-(5-chloro-2-furyl)-2-[2-(1H-imidazol-4-yl)ethyl]-1-oxo-1,2,3,4-tetrahydroisoquinolin-7-yl}-3-[4-(methylthio)phenyl]urea]
21 | (0.78) | 21 nM | N#Cc1ccc(C2Cc3ccc(NC(=O)Nc4ccc(C(F)(F)F)cc4)cc3C(=O)N2CCCN)cc1 (stereo not drawn) [Compound 4, 1-[2-(3-aminopropyl)-3-(4-cyanophenyl)-1-oxo-1,2,3,4-tetrahydroisoquinolin-7-yl]-3-[4-(trifluoromethyl)phenyl]urea]
22 | (0.92) |  | C[S+]([O-])c1ccc(NC(=O)Nc2ccc3c(c2)C(=O)N(CCCN)C(c2ccc(C#N)cc2)C3)cc1 (stereo not drawn) [Compound 7, 1-[2-(3-aminopropyl)-3-(4-cyanophenyl)-1-oxo-1,2,3,4-tetrahydroisoquinolin-7-yl]-3-[4-(methylsulfinyl)phenyl]urea]
23 | (1.0) | 299 nM | CSc1ccc(NC(=O)Nc2ccc3c(c2)C(=O)N(CCCN)[C@H](c2ccc(C#N)cc2)C3)cc1 [Compound 10, (S)-1-[2-(3-aminopropyl)-3-(4-cyanophenyl)-1-oxo-1,2,3,4-tetrahydroisoquinolin-7-yl]-3-[4-(methylthio)phenyl]urea]
24 | (0.90) | 34 nM | CC(=O)c1ccc(NC(=O)Nc2ccc3c(c2)C(=O)N(CCN)C(c2ccc(C#N)cc2)C3)cc1 (stereo not drawn) [Compound 2, 1-(4-acetylphenyl)-3-[2-(2-aminoethyl)-3-(4-cyanophenyl)-1-oxo-1,2,3,4-tetrahydroisoquinolin-7-yl]urea]
25 | (1.0) | 23 nM | CCSc1ccc(NC(=O)Nc2ccc3c(c2)C(=O)N(CCCN)C(c2ccc(C#N)cc2)C3)cc1 (stereo not drawn) [Compound 9, 1-[2-(3-aminopropyl)-3-(4-cyanophenyl)-1-oxo-1,2,3,4-tetrahydroisoquinolin-7-yl]-3-[4-(ethylthio)phenyl]urea]
